Literature values, collected in patent publication US20090258897A1, “Substituted benzimidazoles” (Auspex Pharmaceuticals, Inc., priority 2008, published 2009).

Target: T1, gastric H^+, K^+-ATPase (Homo sapiens, UniProt P20648)
T1 construct: host or cells: healthy volunteers (in vivo, endogenous gastric enzyme)

[1] = healthy volunteers, even after stoppage of the drug

T1 sequence (P20648 whole entry): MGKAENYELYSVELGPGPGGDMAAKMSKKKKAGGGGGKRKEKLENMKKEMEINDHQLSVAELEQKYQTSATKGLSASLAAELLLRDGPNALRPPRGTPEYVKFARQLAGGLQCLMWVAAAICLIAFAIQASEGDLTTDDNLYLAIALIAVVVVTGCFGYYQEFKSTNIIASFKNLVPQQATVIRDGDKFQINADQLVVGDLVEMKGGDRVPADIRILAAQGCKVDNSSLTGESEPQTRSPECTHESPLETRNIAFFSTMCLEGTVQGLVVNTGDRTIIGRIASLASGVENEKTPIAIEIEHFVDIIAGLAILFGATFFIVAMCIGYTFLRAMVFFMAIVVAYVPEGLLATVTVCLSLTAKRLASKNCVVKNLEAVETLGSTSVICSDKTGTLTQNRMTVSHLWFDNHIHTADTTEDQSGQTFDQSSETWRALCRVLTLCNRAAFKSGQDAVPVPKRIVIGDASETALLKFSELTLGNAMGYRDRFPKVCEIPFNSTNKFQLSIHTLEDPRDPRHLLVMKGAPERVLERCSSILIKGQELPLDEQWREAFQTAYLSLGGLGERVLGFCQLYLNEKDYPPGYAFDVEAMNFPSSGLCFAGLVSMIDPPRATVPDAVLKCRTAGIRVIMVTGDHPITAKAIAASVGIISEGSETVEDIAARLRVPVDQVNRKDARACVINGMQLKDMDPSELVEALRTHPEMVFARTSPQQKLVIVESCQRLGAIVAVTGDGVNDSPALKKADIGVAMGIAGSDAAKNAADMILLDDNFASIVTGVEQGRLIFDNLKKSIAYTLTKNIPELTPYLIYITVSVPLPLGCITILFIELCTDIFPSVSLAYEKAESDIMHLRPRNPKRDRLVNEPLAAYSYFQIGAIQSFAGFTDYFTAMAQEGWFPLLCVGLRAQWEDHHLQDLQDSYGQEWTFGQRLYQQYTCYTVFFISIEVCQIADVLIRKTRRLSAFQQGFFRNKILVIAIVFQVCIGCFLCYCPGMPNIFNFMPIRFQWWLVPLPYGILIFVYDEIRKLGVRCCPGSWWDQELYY
T1 sequence (P51164 whole entry partner): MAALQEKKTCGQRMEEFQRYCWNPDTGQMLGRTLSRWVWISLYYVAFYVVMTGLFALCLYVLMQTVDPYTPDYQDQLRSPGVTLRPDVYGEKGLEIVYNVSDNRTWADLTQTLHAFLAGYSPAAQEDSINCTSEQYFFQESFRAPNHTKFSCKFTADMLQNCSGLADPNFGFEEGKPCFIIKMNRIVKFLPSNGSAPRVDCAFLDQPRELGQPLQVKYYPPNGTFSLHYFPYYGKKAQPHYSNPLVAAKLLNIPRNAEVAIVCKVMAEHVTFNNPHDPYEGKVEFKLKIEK

potency compared to other proton pump inhibitors (PPIs) such as esomeprazole (clinical trials): improved potency
duration of acid suppression as compared with other PPIs [1]: prolonged duration of acid suppression
nocturnal acid breakthrough as compared with other PPIs [1]: shorter nocturnal acid breakthrough
SMILES: COc1ccc2[nH]c([S+]([O-])Cc3ncc(C)c(OC)c3C)nc2n1 (stereo not drawn) [tenatoprazole, 5-methoxy-2-(4-methoxy-3,5-dimethyl-pyridin-2-ylmethane-sulfinyl)-1H-imidazo[4,5-b]pyridine]
